In patent US7629318B2, “Immunosuppressant compounds, methods and uses related thereto” (priority 2002, dated 2009):
Where two headings read alike, the source gives them in different places. Numbered stars: 1 amine (or outer) side, 2 acyl side, 3 side chain; on linkers, the order of the positions; unused ones are H or OH. Square brackets hold non-standard residues; d marks the D form. Peptide text beside a SMILES is read from it. * marks the point of attachment. ξ: configuration not given here. Gly(1-amidinopiperidin-4-yl) = N=C(N)N1CCC([C@H](N)C(=O)O)CC1; X1 = CC(C)c1oc([C@H](CO)N[*:1])nc1C(=O)[*:2]; Pro(3R-Ph) = O=C(O)[C@H]1NCC[C@@H]1c1ccccc1; Met(O) = CS(=O)CC[C@H](N)C(=O)O; Tic = O=C(O)[C@@H]1Cc2ccccc2CN1; Cha = N[C@@H](CC1CCCCC1)C(=O)O; NMe(benzyl) = CN(Cc1ccccc1)*; ξDisc = O=C(O)C1NCc2ccccc21; Nle = CCCC[C@H](N)C(=O)O; X2 = OCCOCCN(Cc1ccccc1)*; X3 = OCCOCCN*

Legend:
[1] = target: Cathepsin D (EC 3.4.23.5 from bovine spleen) (Bos taurus, UniProt P80209)
[2] = Stability of compounds in rat blood plasma; assay type: in vitro ADME
Method in brief: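 Compounds at 5 μM final in rat, mouse or human plasma, incubated at 37 °C and sampled at 0, 6 and 24 h. Proteins precipitated with acetonitrile and the supernatant dried and reconstituted in 50% acetonitrile/0.1% TFA. PBS controls run for unstable compounds.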

[3] = target: T1, Priess (DR4Dw4: DRA1*0101 DRB1*0401) cells (Homo sapiens, UniProt P01903+P01911, A100K/A169T/F76Y/I96L/K127E/L162R/M171V/N62H/P40V/Q125Y/R42H/S133A/S149N/S66Y/V115G/V209L/W38E); assay: Competitive binding to MHC II proteins expressed on Priess cells; assay type: cell-based
T1 construct: MHC II Proteins Expressed on PRIESS and LG2 Cells; endogenous in cells; host or cells: Priess cells
Experimental: For use in the binding assay the cells were re-suspended in medium containing 1% FCS at a density of 2.5×10^6 cells/ml.
The assay was performed in sterile 96 well polystyrene microtiter plates. A 10 fold dilution series of compounds (16 nM-1615 μM) in 1% FCS was prepared from 5 or 10 mM compound stock solutions in 10% DMSO/water. 50 μl of each compound dilution were added in duplicates to 50 μl of a 16 μM solution of indicator peptide in 1% FCS. Cell binding was initiated by adding 100 μl of 2.5×10^6 cells/ml 1% FCS to each well. Controls were included containing the DMSO concentration present in the solution with the highest compound concentration. The cells were incubated at 37° C., 6% CO2. After 4 hours the cells were washed with 200 μl PBS and lysed in 200 μl lysis buffer (50 mM sodium phosphate, 150 mM sodium chloride, 1% (w/v) NP-40, 25 mM iodoacetamide, 1 mM PMSF, 3.1% protease inhibitor cocktail: 0.32 g/l of Chymostatin, Antipain, Pepstatin A, Soybean trypsin inhibitor and Leupeptin each, pH 7.5) for 10 min.
After washing with PBS, 190 μl of cell lysate were transferred to the appropriate wells of the capture plate and incubated for 2 h at 4° C. The wells were washed six times with 200 μl/well cooled (4 to 8° C.) of 1×DELFIA wash (Wallac-ADL-GmbH, Freiburg), incubated with 100 μl of cooled Europium-streptavidin conjugate (Wallac-ADL-GmbH, Freiburg; diluted 1/1000 with DELFIA assay buffer) for 30 minutes at 4° C., again washed six times with cooled 1×DELFIA wash and, finally, incubated with 200 μl cooled DELFIA enhancement solution (Wallac-ADL-GmbH, Freiburg) for one hour at room temperature before reading the time-resolved europium fluorescence at λex Eu^3+: 340 nm and λem Eu^3+: 613 (615) nm (Wallac Victor^2 1420 Multilabel Counter, Wallac-ADL-GmbH, Freiburg).

[4] = target: DR4Dw4 (DRA1*0101 DRB1*0401) (Homo sapiens, UniProt P01903+P01911, A100K/A169T/F76Y/I96L/K127E/L162R/M171V/N62H/P40V/Q125Y/R42H/S133A/S149N/S66Y/V115G/V209L/W38E); assay: Competitive binding to MHC-II protein DR4Dw4
Method in brief: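 Each MHC-II allele incubated with compound 16 hours at room temperature in duplicate; controls lacked compound, or both compound and MHC-II. Complexes captured 2 h at 4 °C, bound biotinylated peptide detected via europium-streptavidin and DELFIA enhancement, time-resolved fluorescence read at ex 340/em 613 (615) nm.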

## CCCC[C@H](NC(=O)[C@@H]1Cc2ccccc2CN1C(=O)[C@H](CCCNC(=N)N)NC(=O)[C@H](CC1CCCCC1)NC(C)=O)C(=O)N(C)Cc1ccccc1 [Compound P71, Ac-Cha-Arg-Tic-Nle-N(Me)Bn] (Ac-[Cha]R[Tic][Nle]-{NMe(benzyl)})
[1]
  Stability (Arbitrary units) Cath D 4 h: 104 Arbitrary units
[2]
  Stability (Arbitrary units) Rat 6 h: 89 Arbitrary units
  Stability (Arbitrary units) Rat 24 h: 53 Arbitrary units

## CCCC[C@H](NC(=O)C1c2ccccc2CN1C(=O)[C@@H](NC(=O)[C@H](CC1CCCCC1)NC(C)=O)C1CCN(C(=N)N)CC1)C(=O)N(C)Cc1ccccc1 (single isomer, unassigned) [Compound P78-1]
[1]
  Stability (Arbitrary units) Cath D 4 h: 104 Arbitrary units
[3]
  IC50: 9.8 µM
[2]
  Stability (Arbitrary units) Rat 6 h: 80 Arbitrary units
  Stability (Arbitrary units) Rat 24 h: 84 Arbitrary units
[4]
  IC50: 2300 nM

## CSCC[C@H](NC(=O)C1c2ccccc2CN1C(=O)[C@@H](NC(=O)[C@H](CC1CCCCC1)NC(C)=O)C1CCN(C(=N)N)CC1)C(=O)N1CC[C@H](c2ccccc2)[C@H]1C(=O)N[C@@H](CO)c1nc(C(=O)N(C)C)c(C(C)C)o1 (stereo partly drawn) [Compound P41-1, Ac-Cha-Gpg-Disc-Met-βPhPro-[S(oxaz)L]-NMe2] (Ac-[Cha][Gly(1-amidinopiperidin-4-yl)][ξDisc]M[Pro(3R-Ph)][X1]-NMe2)
[1]
  Stability (Arbitrary units) Cath D 4 h: 103 Arbitrary units
[3]
  IC50: 3.7 µM
[2]
  Stability (Arbitrary units) Rat 6 h: 91 Arbitrary units
[2]; rat plasma, 24 h
  Stability (Arbitrary units) Rat 24 h: 103 Arbitrary units
[4]
  IC50: 200 nM

## CSCC[C@H](NC(=O)[C@@H]1Cc2ccccc2CN1C(=O)[C@@H](NC(=O)[C@H](CC1CCCCC1)NC(C)=O)C1CCN(C(=N)N)CC1)C(=O)N1CC[C@H](c2ccccc2)[C@H]1C(=O)N[C@@H](CO)c1nc(C(=O)N(C)C)c(C(C)C)o1 [Compound P60, Ac-Cha-Gpg-Tic-Met-βPhPro-[S(oxaz)L]-NMe2] (Ac-[Cha][Gly(1-amidinopiperidin-4-yl)][Tic]M[Pro(3R-Ph)][X1]-NMe2)
[1]
  Stability (Arbitrary units) Cath D 4 h: 108 Arbitrary units
[3]
  IC50: 2.1 µM
[2]
  Stability (Arbitrary units) Rat 6 h: 134 Arbitrary units
  Stability (Arbitrary units) Rat 24 h: 124 Arbitrary units
[4]
  IC50: 230 nM

## CCCC[C@H](NC(=O)[C@@H]1Cc2ccccc2CN1C(=O)[C@@H](NC(=O)[C@H](CC1CCCCC1)NC(C)=O)C1CCN(C(=N)N)CC1)C(=O)N1CC[C@H](c2ccccc2)[C@H]1C(=O)N[C@@H](CO)c1nc(C(=O)N(C)C)c(C(C)C)o1 [Compound P53, Ac-Cha-Gpg-Tic-Nle-βPhPro-[S(oxaz)L]-NMe2] (Ac-[Cha][Gly(1-amidinopiperidin-4-yl)][Tic][Nle][Pro(3R-Ph)][X1]-NMe2)
[1]
  Stability (Arbitrary units) Cath D 4 h: 99 Arbitrary units
[3]
  IC50: 3 µM
[2]
  Stability (Arbitrary units) Rat 6 h: 114 Arbitrary units
  Stability (Arbitrary units) Rat 24 h: 108 Arbitrary units
[4]
  IC50: 410 nM

## CCCC[C@H](NC(=O)[C@@H]1Cc2ccccc2CN1C(=O)[C@H](CCCNC(=N)N)NC(=O)[C@H](CC1CCCCC1)NC(C)=O)C(=O)N1CC[C@H](c2ccccc2)[C@H]1C(=O)N[C@@H](CO)c1nc(C(=O)N(C)C)c(C(C)C)o1 [Compound P51, Ac-Cha-Arg-Tic-Nle-βPhPro-[S(oxaz)L]-NMe2] (Ac-[Cha]R[Tic][Nle][Pro(3R-Ph)][X1]-NMe2)
[1]
  Stability (Arbitrary units) Cath D 4 h: 103 Arbitrary units
[2]
  Stability (Arbitrary units) Rat 6 h: 81 Arbitrary units
  Stability (Arbitrary units) Rat 24 h: 60 Arbitrary units
[4]
  IC50: 670 nM

## CC(=O)N[C@@H](CC1CCCCC1)C(=O)N[C@H](C(=O)N1Cc2ccccc2C[C@H]1C(=O)N[C@@H](CC[S+](C)[O-])C(=O)N1CC[C@H](c2ccccc2)[C@H]1C(=O)N[C@@H](CO)c1nc(C(=O)N(C)C)c(C(C)C)o1)C1CCN(C(=N)N)CC1 (stereo partly drawn) [Compound P47, Ac-Cha-Gpg-Tic-Met(O)-βPhPro-[S(oxaz)L]-NMe2] (Ac-[Cha][Gly(1-amidinopiperidin-4-yl)][Tic][Met(O)][Pro(3R-Ph)][X1]-NMe2)
[1]
  Stability (Arbitrary units) Cath D 4 h: 99 Arbitrary units
[3]
  IC50: 6.9 µM
[2]
  Stability (Arbitrary units) Rat 6 h: 116 Arbitrary units
  Stability (Arbitrary units) Rat 24 h: 103 Arbitrary units
[4]
  IC50: 180 nM

## CCCC[C@H](NC(=O)C1c2ccccc2CN1C(=O)[C@H](CCCNC(=N)N)NC(=O)[C@H](CC1CCCCC1)NC(C)=O)C(=O)N(C)Cc1ccccc1 (stereo partly drawn) [Compound P72-1, Ac-Cha-Arg-Disc-Nle-N(Me)Bn] (Ac-[Cha]R[ξDisc][Nle]-{NMe(benzyl)})
[1]
  Stability (Arbitrary units) Cath D 4 h: 101 Arbitrary units
[3]
  IC50: 7.5 µM
[2]
  Stability (Arbitrary units) Rat 6 h: 80 Arbitrary units
  Stability (Arbitrary units) Rat 24 h: 67 Arbitrary units
[4]
  IC50: 5200 nM

## CCCC[C@H](NC(=O)[C@@H]1Cc2ccccc2CN1C(=O)[C@@H](NC(=O)[C@H](CC1CCCCC1)NC(C)=O)C1CCN(C(=N)N)CC1)C(=O)N(CCOCCO)Cc1ccccc1 [Compound P101, Ac-Cha-Gpg-Tic-Nle-N(Bn)CH2CH2OCH2CH2OH] (Ac-[Cha][Gly(1-amidinopiperidin-4-yl)][Tic][Nle]-X2)
[1]
  Stability (Arbitrary units) Cath D 4 h: 106 Arbitrary units
[2]
  Stability (Arbitrary units) Rat 6 h: 73 Arbitrary units
  Stability (Arbitrary units) Rat 24 h: 81 Arbitrary units
[4]
  IC50: 1500 nM

## CSCC[C@H](NC(=O)[C@@H]1Cc2ccccc2CN1C(=O)[C@H](CCCNC(=N)N)NC(=O)[C@H](CC1CCCCC1)NC(C)=O)C(=O)N1CC[C@H](c2ccccc2)[C@H]1C(N)=O [Compound P31, Ac-Cha-Arg-Tic-Met-βPhPro-NH2] (Ac-[Cha]R[Tic]M[Pro(3R-Ph)]-NH2)
[1]
  Stability (Arbitrary units) Cath D 4 h: 95 Arbitrary units
[3]
  IC50: 3.7 µM
[2]
  Stability (Arbitrary units) Rat 6 h: 42 Arbitrary units
  Stability (Arbitrary units) Rat 24 h: 5 Arbitrary units
[4]
  IC50: 280 nM

## CCCC[C@H](NC(=O)[C@@H]1Cc2ccccc2CN1C(=O)[C@@H](NC(=O)[C@H](CC1CCCCC1)NC(C)=O)C1CCN(C(=N)N)CC1)C(=O)NCCOCCO [Compound P70, Ac-Cha-Gpg-Tic-Nle-N(H)CH2CH2OCH2CH2OH] (Ac-[Cha][Gly(1-amidinopiperidin-4-yl)][Tic][Nle]-X3)
[1]
  Stability (Arbitrary units) Cath D 4 h: 112 Arbitrary units
[3]
  IC50: 8.6 µM
[2]
  Stability (Arbitrary units) Rat 6 h: 83 Arbitrary units
  Stability (Arbitrary units) Rat 24 h: 65 Arbitrary units
[4]
  IC50: 440 nM

## CCCC[C@H](NC(=O)C1c2ccccc2CN1C(=O)[C@@H](NC(=O)[C@H](CC1CCCCC1)NC(C)=O)C1CCN(C(=N)N)CC1)C(=O)N(C)Cc1ccccc1 (single isomer, unassigned) [Compound P76-1, Ac-Cha-Gpg-Disc-Nle-N(Me)Bn]
[1]
  Stability (Arbitrary units) Cath D 4 h: 104 Arbitrary units
[3]; read-out: Cell binding IC50 (uM) Priess (0401), Priess (0401)
  IC50: 9.8 µM
[2]
  Stability (Arbitrary units) Rat 6 h: 80 Arbitrary units
  Stability (Arbitrary units) Rat 24 h: 84 Arbitrary units
[4]; read-out: Protein binding IC50 (nM) 0401, 0401
  IC50: 2300 nM

## CSCC[C@H](NC(=O)[C@@H]1Cc2ccccc2CN1C(=O)[C@@H](NC(=O)[C@H](CC1CCCCC1)NC(C)=O)C1CCN(C(=N)N)CC1)C(=O)N(CCOCCO)Cc1ccccc1 [Compound P102, Ac-Cha-Gpg-Tic-Met-N(Bn)CH2CH2OCH2CH2OH] (Ac-[Cha][Gly(1-amidinopiperidin-4-yl)][Tic]M-X2)
[1]
  Stability (Arbitrary units) Cath D 4 h: 120 Arbitrary units
[2]
  Stability (Arbitrary units) Rat 6 h: 131 Arbitrary units
  Stability (Arbitrary units) Rat 24 h: 121 Arbitrary units
[4]
  IC50: 1700 nM
